Assay results as given in patent US8354403B2, “Pyrrolidine derived beta 3 adrenergic receptor agonists” (Merck Sharp & Dohme Corp., priority 2009, dated 2013).
Where two headings read alike, the source gives them in different places.

Molecular target: T1, human β3 adrenergic receptor (Homo sapiens, UniProt P13945)
T1 construct: expressed in transfected cells; host or cells: Chinese hamster ovary (CHO) cells, stably transfected
Test: Beta-3 agonist in vitro functional assay: cAMP production (LANCE TR-FRET) in CHO cells stably transfected with the cloned β3 receptor
Assay type: cell-based
Conditions: read-out: Human β3 agonist functional activity
Outline: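 CHO cells stably expressing the cloned receptor, in HEPES-buffered HBSS with BSA and 0.6 mM IBMX, 6,000 cells/well, exposed to compound for 30 min at RT. cAMP read by LANCE TR-FRET against a cAMP standard curve. Isoproterenol defines maximal stimulation.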

[1] = Table 12, human β3 functional activity given as ranges
[2] = Table 9, Beta-3 agonist in vitro functional assay
[3] = Table 8, Beta-3 agonist in vitro functional assay
[4] = Table 10, Beta-3 agonist in vitro functional assay
[5] = Table 7, cAMP, CHO cells, ranges as given for Tables 6 and 7

T1 sequence (P13945 whole entry): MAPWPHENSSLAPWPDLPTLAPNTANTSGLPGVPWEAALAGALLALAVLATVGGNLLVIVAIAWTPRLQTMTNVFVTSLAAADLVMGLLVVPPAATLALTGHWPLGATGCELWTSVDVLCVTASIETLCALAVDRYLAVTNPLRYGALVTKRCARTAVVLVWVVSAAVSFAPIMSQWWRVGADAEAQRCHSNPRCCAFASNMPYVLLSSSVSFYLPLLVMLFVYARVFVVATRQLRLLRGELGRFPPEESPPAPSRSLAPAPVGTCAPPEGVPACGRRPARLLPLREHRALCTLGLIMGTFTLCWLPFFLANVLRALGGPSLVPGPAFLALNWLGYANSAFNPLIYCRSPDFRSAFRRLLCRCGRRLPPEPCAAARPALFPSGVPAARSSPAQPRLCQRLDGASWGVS

O=C(c1ccc(CC2CCC(C(O)c3ccccc3)N2)cc1)N1CCN(C2CCN(C3CC3)C2=O)CC1 (single isomer, unassigned) [Example 608]
EC50 [1]: 10 to 99.9 nM

O=C(c1ccc(C[C@@H]2CC[C@H]([C@H](O)c3ccccc3)N2)cc1)N1CCN(c2ncccn2)CC1 [Example 370]
EC50 [2]: 100 to 999 nM

O=C(c1ccc(C[C@@H]2CC[C@H]([C@H](O)c3ccccc3)N2)cc1)N1CCC(S(=O)(=O)O)CC1 [Example 141]
EC50 (Table 5, cAMP, CHO cells): 10 to 99.9 nM

NC(=O)C1(F)CN(C(=O)c2ccc(C[C@@H]3CC[C@H]([C@H](O)c4ccccc4)N3)cc2)C1 [Example 4]
EC50 (Table 4, cAMP, CHO cells): 100 to 999 nM

O=C(c1ccc(C[C@@H]2CC[C@H]([C@H](O)c3ccccc3)N2)cc1)N1C2CCC1CN(c1nccs1)C2 [Example 543]
EC50 (Table 11, cAMP, CHO cells): 10 to 99.9 nM

O=C(c1ccc(C[C@@H]2CC[C@H]([C@H](O)c3ccccc3)N2)cc1)N1CCC2(CC1)c1ccccc1CS2(=O)=O [Example 302]
EC50 [3]: 10 to 99.9 nM

O=C(c1ccc(C[C@@H]2CC[C@H]([C@H](O)c3cccnc3)N2)cc1)N1CCC(S(=O)(=O)c2ccc(F)cc2)CC1 [Example 129]
EC50 (Table 5, cAMP, CHO cells): 100 to 999 nM

O=C(c1ccc(C[C@@H]2CC[C@H]([C@H](O)c3cccnc3)N2)cc1)N1CCC(n2cc(-c3ccccc3)[nH]c2=O)CC1 [Example 85]
EC50 (Table 5, cAMP, CHO cells): 10 to 99.9 nM

O=C(c1ccc(C[C@@H]2CC[C@H]([C@H](O)c3ccccc3)N2)cc1)N1CCC2(CC1)C(=O)NCC2c1ccccc1C(F)(F)F (some centres unmarked) [Example 265]
EC50 [3]: 1 to 9.9 nM

CC1CCN(C(=O)C(C)N2CCN(C(=O)c3ccc(C[C@@H]4CC[C@H]([C@H](O)c5ccccc5)N4)cc3)CC2)CC1 (some centres unmarked) [Example 488]
EC50 [4]: 100 to 999 nM

O=C(c1ncco1)C1C2CN(C(=O)c3ccc(C[C@@H]4CC[C@H]([C@H](O)c5ccccc5)N4)cc3)CC21 (some centres unmarked) [Example 234]
EC50 [5]: 10 to 99.9 nM

CN(C)C(=O)c1cc(OC2CCN(C(=O)c3ccc(C[C@@H]4CC[C@H]([C@H](O)c5ccccc5)N4)cc3)CC2)no1 [Example 158]
EC50 (Table 5, cAMP, CHO cells): 100 to 999 nM

CNC(=O)c1ccccc1OC1CCN(C(=O)c2ccc(C[C@@H]3CC[C@H]([C@H](O)c4ccccc4)N3)cc2)CC1 [Example 157]
EC50 (Table 5, cAMP, CHO cells): 100 to 999 nM

CC(c1cnccn1)N1CCN(C(=O)c2ccc(C[C@@H]3CC[C@H]([C@H](O)c4ccccc4)N3)cc2)CC1 (some centres unmarked) [Example 428]
EC50 [2]: 10 to 99.9 nM

O=C(c1ccc(C[C@@H]2CC[C@H]([C@H](O)c3ccccc3)N2)cc1)N1CCC2(CCCC2n2cccn2)CC1 (some centres unmarked) [Example 282]
EC50 [3]: 100 to 999 nM

O=C(c1ccc(C[C@@H]2CC[C@H]([C@H](O)c3ccccc3)N2)cc1)N1CCN(C2COc3cccnc32)CC1 (single isomer, unassigned) [Example 600]
EC50 [1]: 1 to 9.9 nM

CC(C(=O)N1CC[C@H](F)C1)N1CCN(C(=O)c2ccc(C[C@@H]3CC[C@H]([C@H](O)c4ccccc4)N3)cc2)CC1 (some centres unmarked) [Example 475]
EC50 [4]: 1 to 9.9 nM

CCC1CC2(CCN(C(=O)c3ccc(CC4CCC(C(O)c5ccccc5)N4)cc3)CC2)C(=O)O1 (single isomer, unassigned) [Example 563]
EC50 [1]: 1 to 9.9 nM

O=C(c1ccccc1)N1CCN(C(=O)c2ccc(C[C@@H]3CC[C@H]([C@H](O)c4ccccc4)N3)cc2)CC1 [Example 347]
EC50 [2]: 100 to 999 nM

Cc1cncnc1OC1CCN(C(=O)c2ccc(C[C@@H]3CC[C@H]([C@H](O)c4ccccc4)N3)cc2)CC1 [Example 153]
EC50 (Table 5, cAMP, CHO cells): 100 to 999 nM

O=C(c1ccc(C[C@@H]2CC[C@H]([C@H](O)c3ccccc3)N2)cc1)N1CCC(COc2cnccn2)CC1 [Example 161]
EC50 (Table 5, cAMP, CHO cells): 10 to 99.9 nM

O=C(c1ccc(C[C@@H]2CC[C@H]([C@H](O)c3cccnc3)N2)cc1)N1CCC2(CC1)NC(=O)N(Cc1ccccc1)C2=O [Example 270]
EC50 [3]: 10 to 99.9 nM

O=C(c1ccc(CC2CCC(C(O)c3cccnc3)N2)cc1)N1CCC2(CC1)C(=O)NCC2c1ccc(F)cc1 (single isomer, unassigned) [Example 555]
EC50 [1]: 1 to 9.9 nM

O=C(c1ccc(C[C@@H]2CC[C@H]([C@H](O)c3ccccc3)N2)cc1)N1CCC(n2ccccc2=O)CC1 [Example 70]
EC50 (Table 5, cAMP, CHO cells): 100 to 999 nM

O=C(c1ccc(C[C@@H]2CC[C@H]([C@H](O)c3cccnc3)N2)cc1)N1CCC2(CC1)C(=O)NCN2c1ccccc1 [Example 259]
EC50 [3]: 1 to 9.9 nM

CC(C(=O)NCc1nnc2n1CCC2)N1CCN(C(=O)c2ccc(C[C@@H]3CC[C@H]([C@H](O)c4ccccc4)N3)cc2)CC1 (some centres unmarked) [Example 466]
EC50 [4]: 100 to 999 nM

CC(C(=O)NCCC1CC1)N1CCN(C(=O)c2ccc(C[C@@H]3CC[C@H]([C@H](O)c4ccccc4)N3)cc2)CC1 (some centres unmarked) [Example 448]
EC50 [4]: 10 to 99.9 nM

O=C(c1ccc(C[C@@H]2CC[C@H]([C@H](O)c3ccccc3)N2)cc1)N1CCC(S(=O)(=O)c2ccc(F)c(F)c2)CC1 [Example 138]
EC50 (Table 5, cAMP, CHO cells): 10 to 99.9 nM

Cc1cc(C)nc(N2CCN(C(=O)c3ccc(C[C@@H]4CC[C@H]([C@H](O)c5ccccc5)N4)cc3)CC2)n1 [Example 372]
EC50 [2]: 100 to 999 nM

CC(C(=O)N1CCC[C@H]1C(N)=O)N1CCN(C(=O)c2ccc(C[C@@H]3CC[C@H]([C@H](O)c4ccccc4)N3)cc2)CC1 (some centres unmarked) [Example 478]
EC50 [4]: 100 to 999 nM

CC(C(=O)NCc1ncco1)N1CCN(C(=O)c2ccc(C[C@@H]3CC[C@H]([C@H](O)c4ccccc4)N3)cc2)CC1 (some centres unmarked) [Example 462]
EC50 [4]: 10 to 99.9 nM

O=C(c1ccc(C[C@@H]2CC[C@H]([C@H](O)c3ccccc3)N2)cc1)N1CCN(Cc2ccn[nH]2)CC1 [Example 395]
EC50 [2]: 10 to 99.9 nM

NC1CCCC12CCN(C(=O)c1ccc(C[C@@H]3CC[C@H]([C@H](O)c4ccccc4)N3)cc1)CC2 (some centres unmarked) [Example 315]
EC50 [3]: 100 to 999 nM

O=C(c1ccc(C[C@@H]2CC[C@H]([C@H](O)c3ccccc3)N2)cc1)N1CCN(c2nccc(-c3ccccc3)n2)CC1 [Example 376]
EC50 [2]: 10 to 99.9 nM

O=C1CC2(CCN(C(=O)c3ccc(C[C@@H]4CC[C@H]([C@H](O)c5ccccc5)N4)cc3)CC2)Oc2ccccc21 [Example 323]
EC50 [3]: 10 to 99.9 nM

Cc1nc(C2CCN(C(=O)c3ccc(C[C@@H]4CC[C@H]([C@H](O)c5ccccc5)N4)cc3)CC2)ns1 [Example 89]
EC50 (Table 5, cAMP, CHO cells): 100 to 999 nM

CC(C(=O)N1CCCC(C(F)(F)F)C1)N1CCN(C(=O)c2ccc(C[C@@H]3CC[C@H]([C@H](O)c4ccccc4)N3)cc2)CC1 (some centres unmarked) [Example 487]
EC50 [4]: 1 to 9.9 nM

O=C1OCCC1N1CCN(C(=O)c2ccc(CC3CCC(C(O)c4ccccc4)N3)cc2)CC1 (single isomer, unassigned) [Example 603]
EC50 [1]: 1 to 9.9 nM

O=C(c1ccc(C[C@@H]2CC[C@H]([C@H](O)c3ccccc3)N2)cc1)N1CCC2(CCc3cnoc32)CC1 [Example 322]
EC50 [3]: 10 to 99.9 nM

Cn1nnc(CN2CCN(C(=O)c3ccc(C[C@@H]4CC[C@H]([C@H](O)c5ccccc5)N4)cc3)CC2)n1 [Example 401]
EC50 [2]: 10 to 99.9 nM

CC(c1ccccc1F)N1CCN(C(=O)c2ccc(CC3CCC(C(O)c4ccccc4)N3)cc2)CC1 (single isomer, unassigned) [Example 573]
EC50 [1]: 1 to 9.9 nM

O=C(c1ccc(C[C@@H]2CC[C@H]([C@H](O)c3ccccc3)N2)cc1)N1CC(Oc2cncc(Cl)n2)C1 [Example 3]
EC50 (Table 4, cAMP, CHO cells): 100 to 999 nM

O=C(c1ccc(C[C@@H]2CC[C@H]([C@H](O)c3ccccc3)N2)cc1)N1CCC(S(=O)(=O)c2ccccc2)CC1 [Example 127]
EC50 (Table 5, cAMP, CHO cells): 10 to 99.9 nM

CC(C)n1nnc(CN2CCN(C(=O)c3ccc(C[C@@H]4CC[C@H]([C@H](O)c5ccccc5)N4)cc3)CC2)n1 [Example 402]
EC50 [2]: 10 to 99.9 nM

Cn1nnc(C2CCN(C(=O)c3ccc(C[C@@H]4CC[C@H]([C@H](O)c5ccccc5)N4)cc3)CC2)n1 [Example 106]
EC50 (Table 5, cAMP, CHO cells): 10 to 99.9 nM

O=C1OC2(CCN(C(=O)c3ccc(C[C@@H]4CC[C@H]([C@H](O)c5cccnc5)N4)cc3)CC2)c2ccccc21 [Example 284]
EC50 [3]: 1 to 9.9 nM

Cc1nnn(C2CCN(C(=O)c3ccc(C[C@@H]4CC[C@H]([C@H](O)c5ccccc5)N4)cc3)CC2)n1 [Example 104]
EC50 (Table 5, cAMP, CHO cells): 100 to 999 nM

Cn1nnnc1C1CCN(C(=O)c2ccc(C[C@@H]3CC[C@H]([C@H](O)c4ccccc4)N3)cc2)CC1 [Example 108]
EC50 (Table 5, cAMP, CHO cells): 1 to 9.9 nM

O=C(c1ccc(C[C@@H]2CC[C@H]([C@H](O)c3ccccc3)N2)cc1)N1CCN(Cc2n[nH]c3ncccc23)CC1 [Example 406]
EC50 [2]: 10 to 99.9 nM

C[C@H]1CN(C(=O)c2ccc(C[C@@H]3CC[C@H]([C@H](O)c4ccccc4)N3)cc2)CCN1Cc1ccccn1 [Example 528]
EC50 (Table 11, cAMP, CHO cells): 10 to 99.9 nM

O=C(c1ncco1)C1CCN(C(=O)c2ccc(C[C@@H]3CC[C@H]([C@H](O)c4ccccc4)N3)cc2)CC1 [Example 120]
EC50 (Table 5, cAMP, CHO cells): 10 to 99.9 nM

CC(Oc1ccncn1)C1CCN(C(=O)c2ccc(C[C@@H]3CC[C@H]([C@H](O)c4ccccc4)N3)cc2)CC1 (some centres unmarked) [Example 167]
EC50 (Table 5, cAMP, CHO cells): 100 to 999 nM

CC(C(=O)N1CC(F)C1)N1CCN(C(=O)c2ccc(C[C@@H]3CC[C@H]([C@H](O)c4ccccc4)N3)cc2)CC1 (some centres unmarked) [Example 472]
EC50 [4]: 1 to 9.9 nM

COC(=O)c1csc(N2CCN(C(=O)c3ccc(C[C@@H]4CC[C@H]([C@H](O)c5ccccc5)N4)cc3)CC2)n1 [Example 381]
EC50 [2]: 100 to 999 nM

Cc1noc(C2CCN(C(=O)c3ccc(C[C@@H]4CC[C@H]([C@H](O)c5ccccc5)N4)cc3)C2)n1 (some centres unmarked) [Example 11]
EC50 (Table 4, cAMP, CHO cells): 100 to 999 nM

O=C(c1ccc(C[C@@H]2CC[C@H]([C@H](O)c3ccccc3)N2)cc1)N1CCC(S(=O)(=O)c2ccc(F)cc2F)CC1 [Example 139]
EC50 (Table 5, cAMP, CHO cells): 10 to 99.9 nM

O=C(OCc1ccccc1)C1C2CN(C(=O)c3ccc(C[C@@H]4CC[C@H]([C@H](O)c5ccccc5)N4)cc3)CC21 (some centres unmarked) [Example 229]
EC50 [5]: < 1 nM

O=C(O)COc1cccnc1N1CCN(C(=O)c2ccc(C[C@@H]3CC[C@H]([C@H](O)c4ccccc4)N3)cc2)CC1 [Example 367]
EC50 [2]: 100 to 999 nM

Cn1ncc2c1CN(C(=O)c1ccc(C[C@@H]3CC[C@H]([C@H](O)c4ccccc4)N3)cc1)C2 [Example 28]
EC50 (Table 4, cAMP, CHO cells): 100 to 999 nM
